Assay results as given in patent US10294229B2, “Heteroaryl substituted aminopyridine compounds” (BRISTOL-MYERS SQUIBB COMPANY, priority 2015, dated 2019).
pIC50: −log10 of the molar value.

What follows are compounds tested against IRAK4 (Homo sapiens (Human), UniProt Q9NWZ3) (assay: IRAK4 Inhibition Assay). Details: ATP 500 μM; IRAK4 0.6 nM.
Assay type: biochemical
Protocol: The assays were performed in U-bottom 384-well plates. The final assay volume was 30 μL prepared from 15 μL additions of enzyme and substrates (fluoresceinated peptide and ATP) and test compounds in assay buffer (20 mM HEPES pH 7.2, 10 mM MgCl2, 0.015% Brij 35 and 4 mM DTT). The reaction was initiated by the combination of IRAK4 with substrates and test compounds. The reaction mixture was incubated at room temperature for 60 min. and terminated by adding 45 μL of 35 mM EDTA to each sample. The reaction mixture was analyzed on the Caliper LABCHIP® 3000 (Caliper, Hopkinton, Mass.) by electrophoretic separation of the fluorescent substrate and phosphorylated product. Inhibition data were calculated by comparison to no enzyme control reactions for 100% inhibition and vehicle-only reactions for 0% inhibition. The final concentrations of reagents in the assays are ATP, 500 μM; FL-IPTSPITTTYFFFKKK peptide 1.5 μM; IRAK4, 0.6 nM; and DMSO, 1.6%.

Sequence of IRAK4 (Q9NWZ3 whole entry, species assumed): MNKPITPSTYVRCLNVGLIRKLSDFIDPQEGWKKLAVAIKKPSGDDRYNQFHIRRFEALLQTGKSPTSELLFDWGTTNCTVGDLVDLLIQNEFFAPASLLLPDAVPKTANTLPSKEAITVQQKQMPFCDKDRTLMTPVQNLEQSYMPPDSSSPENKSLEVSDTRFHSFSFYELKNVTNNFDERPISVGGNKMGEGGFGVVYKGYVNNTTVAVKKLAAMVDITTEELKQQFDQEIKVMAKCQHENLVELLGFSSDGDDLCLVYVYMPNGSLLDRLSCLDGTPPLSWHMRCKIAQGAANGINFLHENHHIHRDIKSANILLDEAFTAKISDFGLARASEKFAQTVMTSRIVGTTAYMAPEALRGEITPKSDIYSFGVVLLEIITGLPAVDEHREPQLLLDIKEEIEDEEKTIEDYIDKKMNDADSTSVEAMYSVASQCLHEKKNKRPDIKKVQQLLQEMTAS

First: CCCn1cc(-c2cnc(-n3ncc4cc(C#N)c(N)nc43)cc2NC2CCOCC2)nn1 [Example 51, 6-amino-1-(5-(1-propyl-1H-1,2,3-triazol-4-yl)-4-((tetrahydro-2H-pyran-4-yl)amino)pyridin-2-yl)-1H-pyrazolo[3,4-b]pyridine-5-carbonitrile]
Second: CCCn1cc(-c2cnc(-n3ncc4cc(C#N)cnc43)cc2Nc2cnn(CC)c2)nn1 [Example 58, 1-(4-((1-ethyl-1H-pyrazol-4-yl)amino)-5-(1-propyl-1H-1,2,3-triazol-4-yl)pyridin-2-yl)-1H-pyrazolo [3,4-b]pyridine-5-carbonitrile]
The pIC50 of the first is 1.49 log units higher: 8.52 for the first, 7.03 for the second.

Compared with `CCCn1cc(-c2cnc(-n3cnc4cc(C#N)cnc43)cc2NCC)nn1` [Example 55, 3-(4-(ethylamino)-5-(1-propyl-1H-1,2,3-triazol-4-yl)pyridin-2-yl)-3H-imidazo[4,5-b]pyridine-6-carbonitrile], `CCNc1cc(-n2cnc3cc(C#N)cnc32)ncc1-c1cn(C[C@H](C)O)nn1` [Example 72, (S)-3-(4-(ethylamino)-5-(1-(2-hydroxypropyl)-1H-1,2,3-triazol-4-yl)pyridin-2-yl)-3H-imidazo [4,5-b]pyridine-6-carbonitrile] is 0.82 log units lower in pIC50: 8.10 for the first, 7.28 for the second. The first is the more potent here.

First: CCCn1cc(-c2cnc(-n3cnc4cc(C#N)cnc43)cc2Nc2cnn(CC(F)F)c2)nn1 [Example 61, 3-(4-((1-(2,2-difluoroethyl)-1H-pyrazol-4-yl)amino)-5-(1-propyl-1H-1,2,3-triazol-4-yl)pyridin-2-yl)-3H-imidazo[4,5-b]pyridine-6-carbonitrile]
Second: CC(C)Nc1cc(-n2cnc3cc(C#N)cnc32)ncc1-c1cn(C[C@@H](C)O)nn1 [Example 68, (R)-3-(5-(1-(2-hydroxypropyl)-1H-1,2,3-triazol-4-yl)-4-(isopropylamino)pyridin-2-yl)-3H-imidazo[4,5-b]pyridine-6-carbonitrile]
The pIC50 of the first is 0.30 log units higher: 8.15 for the first, 7.85 for the second. The first is the more potent here.

Going from `CC(C)Nc1cc(-n2cnc3cc(C#N)cnc32)ncc1-c1cn(CC(C)(C)O)nn1` [Example 67, 3-(5-(1-(2-hydroxy-2-methylpropyl)-1H-1,2,3-triazol-4-yl)-4-(isopropylamino)pyridin-2-yl)-3H-imidazo[4,5-b]pyridine-6-carbonitrile] to `CCOC(=O)Cn1cc(-c2cnc(-n3ncc4cc(C#N)cnc43)cc2NC(C)C)nn1` [Example 98, Ethyl 2-(4-(6-(5-cyano-1H-pyrazolo[3,4-b]pyridin-1-yl)-4-(isopropylamino)pyridin-3-yl)-1H-1,2,3-triazol-1-yl)acetate], the pIC50 rises from 7.49 to 8.70 (1.21 log units).

First: CCNc1cc(-n2ncc3cc(C#N)cnc32)ncc1-c1cn(C[C@H](C)O)nn1 [Example 71, (S)-1-(4-(ethylamino)-5-(1-(2-hydroxypropyl)-1H-1,2,3-triazol-4-yl)pyridin-2-yl)-1H-pyrazolo[3,4-b]pyridine-5-carbonitrile]
Second: CC(C)Nc1cc(-n2ncc3cc(C#N)cnc32)ncc1-c1cn(Cc2ccccc2)nn1 [Example 107, 1-(5-(1-benzyl-1H-1,2,3-triazol-4-yl)-4-(isopropylamino)pyridin-2-yl)-1H-pyrazolo[3,4-b]pyridine-5-carbonitrile]
The pIC50 of the first is 0.42 log units lower: 7.40 for the first, 7.82 for the second.

Compared with `CC(C)Nc1cc(-n2ncc3cc(C#N)cnc32)ncc1-c1cn(C2CN(C(c3ccccc3)c3ccccc3)C2)nn1` [Example 100, 1-(5-(1-(1-benzhydrylazetidin-3-yl)-1H-1,2,3-triazol-4-yl)-4-(isopropylamino)pyridin-2-yl)-1H-pyrazolo[3,4-b]pyridine-5-carbonitrile], `CC(C)Nc1cc(-n2ncc3cc(C#N)cnc32)ncc1-c1cn(-c2ccccc2)nn1` [Example 115, 1-(4-(isopropylamino)-5-(1-phenyl-1H-1,2,3-triazol-4-yl)pyridin-2-yl)-1H-pyrazolo[3,4-b]pyridine-5-carbonitrile] is 0.85 log units higher in pIC50: 6.63 for the first, 7.48 for the second. The second is the more potent here.

Going from `CC(C)Nc1cc(-n2ncc3cc(C#N)cnc32)ncc1-c1cn(CC(=O)N2CCOCC2)nn1` [Example 101, 1-(4-(isopropylamino)-5-(1-(2-morpholino-2-oxoethyl)-1H-1,2,3-triazol-4-yl)pyridin-2-yl)-1H-pyrazolo[3,4-b]pyridine-5-carbonitrile] to `CC(C)Nc1cc(-n2ncc3cc(C#N)cnc32)ncc1-c1cn(Cc2ccc(F)cc2)nn1` [Example 112, 1-(5-(1-(4-fluorobenzyl)-1H-1,2,3-triazol-4-yl)-4-(isopropylamino)pyridin-2-yl)-1H-pyrazolo[3,4-b]pyridine-5-carbonitrile], the pIC50 falls from 8.30 to 7.12 (1.18 log units). The first is the more potent here.

`CC(C)Nc1cc(-n2ncc3cc(C#N)cnc32)ncc1-c1cn(-c2cccc(O)c2)nn1` [Example 103, 1-(5-(1-(3-hydroxyphenyl)-1H-1,2,3-triazol-4-yl)-4-(isopropylamino)pyridin-2-yl)-1H-pyrazolo[3,4-b]pyridine-5-carbonitrile] and `CC(C)Nc1cc(-n2ncc3cc(C#N)cnc32)ncc1-c1cn(-c2ccc(F)cc2)nn1` [Example 109, 1-(5-(1-(4-fluorophenyl)-1H-1,2,3-triazol-4-yl)-4-(isopropylamino)pyridin-2-yl)-1H-pyrazolo[3,4-b]pyridine-5-carbonitrile] are within 0.2 log units of each other in pIC50: 6.76 for the first, 6.66 for the second.

Going from `CC(C)Nc1cc(-n2ncc3cc(C#N)cnc32)ncc1-c1cn(-c2ccc(F)c(C#N)c2)nn1` [Example 104, 1-(5-(1-(3-cyano-4-fluorophenyl)-1H-1,2,3-triazol-4-yl)-4-(isopropylamino)pyridin-2-yl)-1H-pyrazolo[3,4-b]pyridine-5-carbonitrile] to `CC(C)Nc1cc(-n2ncc3cc(C#N)cnc32)ncc1-c1cn(-c2cccnc2C#N)nn1` [Example 111, 1-(5-(1-(2-cyanopyridin-3-yl)-1H-1,2,3-triazol-4-yl)-4-(isopropylamino)pyridin-2-yl)-1H-pyrazolo[3,4-b]pyridine-5-carbonitrile], the pIC50 rises from 6.40 to 7.89 (1.49 log units). The second is the more potent here.

`CC(C)Nc1cc(-n2ncc3cc(C#N)cnc32)ncc1-c1cn([C@@H]2O[C@H](CO)[C@H](O)[C@H](O)[C@H]2O)nn1` [Example 105, 1-(4-(isopropylamino)-5-(1-((2R,3R,4S,5R,6R)-3,4,5-trihydroxy-6-(hydroxymethyl)tetrahydro-2H-pyran-2-yl)-1H-1,2,3-triazol-4-yl)pyridin-2-yl)-1H-pyrazolo[3,4-b]pyridine-5-carbonitrile] and `COc1ccc(Cn2cc(-c3cnc(-n4ncc5cc(C#N)cnc54)cc3NC(C)C)nn2)cc1` [Example 110, 1-(4-(isopropylamino)-5-(1-(4-methoxybenzyl)-1H-1,2,3-triazol-4-yl)pyridin-2-yl)-1H-pyrazolo[3,4-b]pyridine-5-carbonitrile] are within 0.2 log units of each other in pIC50: 7.26 for the first, 7.12 for the second.

Compared with `Cc1nc2cc(Cn3cc(-c4cnc(-n5ncc6cc(C#N)cnc65)cc4NC(C)C)nn3)ccc2s1` [Example 106, 1-(4-(isopropylamino)-5-(1-((2-methylbenzo[d]thiazol-5-yl)methyl)-1H-1,2,3-triazol-4-yl)pyridin-2-yl)-1H-pyrazolo[3,4-b]pyridine-5-carbonitrile], `CC(C)Nc1cc(-n2ncc3cc(C#N)cnc32)ncc1-c1cn(Cc2nc3ccccc3[nH]2)nn1` [Example 108, 1-(5-(1-((1H-benzo[d]imidazol-2-yl)methyl)-1H-1,2,3-triazol-4-yl)-4-(isopropylamino)pyridin-2-yl)-1H-pyrazolo[3,4-b]pyridine-5-carbonitrile] is 0.97 log units higher in pIC50: 6.49 for the first, 7.46 for the second. The second is the more potent here.
